Reference: ChEMBL document CHEMBL1129301, “Synthesis and biological evaluation of DL-4,4-difluoroglutamic acid and DL-gamma,gamma-difluoromethotrexate” (J Med Chem, 1996)

Legend:
[1] = tested on: CCRF-CEM; assay: Growth inhibition of CCRF-CEM subline resistant to MTX solely as a result of decreased MTX influx during continuous (120 h) exposure.; format: functional; conditions: Homo sapiens, read-out: ED50 (the source's name)
[2] = tested on: CCRF-CEM; assay: Growth inhibition of CCRF-CEM subline resistant to MTX solely as a result of a 25-fold increase in wild-type DHFR activity during continuous (120 h) exposure to MTX; format: functional; conditions: Homo sapiens, read-out: ED50 (the source's name)
[3] = tested on: CCRF-CEM; assay: cells; conditions: Homo sapiens, 3 h
[4] = tested on: CCRF-CEM; assay: Compound was evaluated for growth inhibition of parental CCRF-CEM during continuous (120 h) exposure to MTX; format: functional; conditions: Homo sapiens, read-out: ED50 (the source's name)
[5] = tested on: CCRF-CEM; assay: Growth inhibition of CCRF-CEM subline resistant to MTX solely as a result of decreased polyglutamylation during continuous (120 h) exposure.; format: functional; conditions: Homo sapiens, read-out: ED50 (the source's name)
[6] = biological target: T1, Dihydrofolate reductase (Homo sapiens, UniProt P00374); assay: Inhibitory activity against purified human dihydrofolate reductase (DHFR) in human leukemia cells (CCRF-CEM)
T1 sequence (P00374 whole entry): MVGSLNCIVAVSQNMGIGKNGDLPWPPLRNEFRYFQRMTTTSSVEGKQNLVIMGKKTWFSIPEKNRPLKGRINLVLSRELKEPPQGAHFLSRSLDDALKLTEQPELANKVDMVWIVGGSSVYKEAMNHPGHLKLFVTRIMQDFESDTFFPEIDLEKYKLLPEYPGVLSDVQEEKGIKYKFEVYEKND

| Compound | EC50 [1] [µM] | EC50 [2] [µM] | IC50 [3] [µM] | EC50 [4] [µM] | EC50 [5] [µM] | IC50 [6] [µM] |
| --- | --- | --- | --- | --- | --- | --- |
| CN(Cc1cnc2nc(N)nc(N)c2n1)c1ccc(C(=O)N[C@@H](CCC(=O)O)C(=O)O)cc1 [METHOTREXATE] | 2.55 | 0.655 |  |  |  |  |
| Nc1nc(N)c2nc(CNc3ccc(C(=O)N[C@@H](CCC(=O)O)C(=O)O)cc3)cnc2n1 [AMINOPTERIN] |  |  | 3 |  |  |  |
| CN(Cc1cnc2nc(N)nc(N)c2n1)c1ccc(C(=O)NC(CC(F)(F)C(=O)O)C(=O)O)cc1 (stereo not drawn) | 2.15 | 0.7 |  | 0.029 | 0.0243 | 1.53 |
